Test results: the CheMixHub ionic liquid set

Assay: xn = mol fraction of the nth substance listed

CCCCCCCCCCCCCC[P+](CCCC)(CCCC)CCCC.CCCCCCCCCCCCc1ccc(S(=O)(=O)[O-])cc1 + O
100 kPa
Details | viscosity [mPa·s]
323.15 K, x1 = 0.3453 | 116
353.15 K, x1 = 0.892 | 148

CCCCCCCCCCCCCC[P+](CCCCCC)(CCCCCC)CCCCCC.[Cl-] + O
100 kPa, x2 = 0.818
Details | viscosity [mPa·s]
318.15 K | 50.65
323.15 K | 41.05

CCCCCCC[n+]1ccn(C)c1.O=S(=O)([N-]S(=O)(=O)C(F)(F)F)C(F)(F)F + O
100 kPa, x2 = 0.1971
Details | viscosity [mPa·s]
308.15 K | 34.86
318.15 K | 24.33
323.15 K | 20.69
358.15 K | 8.4

CCCn1cc[n+](C)c1C.F[B-](F)(F)F + O
101 kPa
Details | viscosity [mPa·s]
298.15 K, x2 = 0.1932 | 134.9
303.15 K, x2 = 0.1932 | 103.3
303.15 K, x2 = 0.3944 | 40.4
303.15 K, x2 = 0.4987 | 25.5
308.15 K, x2 = 0.2833 | 53.2
308.15 K, x2 = 0.3944 | 32.95
308.15 K, x2 = 0.5995 | 13.58
318.15 K, x2 = 0.0939 | 78.6
318.15 K, x2 = 0.1932 | 52.1
333.15 K, x2 = 0.0939 | 42.5
333.15 K, x2 = 0.5995 | 6.65
333.15 K, x2 = 0.6985 | 4.37
343.15 K, x2 = 0.0939 | 29.96

C[n+]1ccn(CCCC#N)c1.O=S(=O)([O-])C(F)(F)F + O=C1CCCO1
100 kPa
Details | electrical conductivity [S/m]
288.15 K, x1 = 0.3003 | 0.53
288.15 K, x1 = 0.6002 | 0.186
288.15 K, x1 = 1 | 0.023
293.15 K, x1 = 0.9004 | 0.069
298.15 K, x1 = 0.9004 | 0.092
303.15 K, x1 = 0.4999 | 0.459
303.15 K, x1 = 0.8002 | 0.179
303.15 K, x1 = 0.9004 | 0.12
308.15 K, x1 = 0.6002 | 0.408
308.15 K, x1 = 1 | 0.083
313.15 K, x1 = 0.3003 | 1.08
313.15 K, x1 = 0.6002 | 0.476
313.15 K, x1 = 0.7001 | 0.372
318.15 K, x1 = 0.8002 | 0.323
318.15 K, x1 = 0.9004 | 0.234
318.15 K, x1 = 1 | 0.134
323.15 K, x1 = 0.3003 | 1.344
323.15 K, x1 = 0.8002 | 0.384
323.15 K, x1 = 0.9004 | 0.281
323.15 K, x1 = 1 | 0.167
333.15 K, x1 = 0.3999 | 1.323
338.15 K, x1 = 0.3003 | 1.79
338.15 K, x1 = 1 | 0.3
343.15 K, x1 = 0.7001 | 0.851

CCCC[P+](CC)(CC)CC.N#Cc1ccc[n-]1 + OCC(O)CO
100 kPa
Details | electrical conductivity, 293.15 K [S/m] | viscosity, 293.15 K [mPa·s] | viscosity, 298.15 K [mPa·s] | viscosity, 303.15 K [mPa·s] | viscosity, 313.15 K [mPa·s]
x1 = 0.002 | 0.0013 | – | – | – | –
x1 = 0.004 | 0.0027 | 1395 | 880 | 562 | 226
x1 = 0.006 | 0.0041 | – | – | – | –
x1 = 0.008 | 0.0055 | – | – | – | –
x1 = 0.011 | 0.0073 | – | – | – | –
x1 = 0.014 | 0.009 | – | – | – | –
x1 = 0.018 | 0.0106 | 1500 | 950 | 599 | 234
x1 = 0.021 | 0.0118 | – | – | – | –
x1 = 0.026 | 0.0135 | – | – | – | –
x1 = 0.029 | 0.0143 | – | – | – | –
x1 = 0.033 | 0.0151 | – | – | – | –
x1 = 0.04 | 0.0162 | 1598 | 1015 | 648 | 256
x1 = 0.047 | 0.0175 | – | – | – | –
x1 = 0.058 | 0.0181 | 1701 | 1080 | 690 | 282
x1 = 0.068 | 0.0188 | – | – | – | –
x1 = 0.08 | 0.0186 | 1713 | 1086 | 690 | 277
x1 = 0.104 | 0.0187 | 1609 | 1023 | 655 | 268
x1 = 0.129 | 0.0185 | 1486 | 930 | 569 | 222
x1 = 0.187 | 0.018 | 1202 | 770 | 483 | 200
x1 = 0.259 | 0.0182 | 930 | 603 | 386 | 166
x1 = 0.34 | 0.0225 | 740 | 487 | 318 | 142
x1 = 0.442 | 0.0297 | 589 | 398 | 265 | 123
x1 = 0.577 | 0.0413 | 479 | 323 | 220 | 107
x1 = 0.743 | 0.0623 | 359 | 242 | 168 | 81
x1 = 0.85 | 0.0878 | 250 | 175 | 123 | 62
x1 = 1 | 0.147 | 187 | 137 | 104 | 62

CCCC[P+](CC)(CC)CC.N#Cc1ccc[n-]1 + OCCN(CCO)CCO
100 kPa
Details | electrical conductivity [S/m] | viscosity [mPa·s]
293.15 K, x1 = 0.005 | 0.0013 | –
293.15 K, x1 = 0.012 | 0.0027 | –
293.15 K, x1 = 0.029 | 0.0046 | 980
293.15 K, x1 = 0.035 | 0.005 | –
293.15 K, x1 = 0.223 | – | 810
293.15 K, x1 = 0.459 | 0.0205 | –
298.15 K, x1 = 0.018 | – | 629
303.15 K, x1 = 0.223 | – | 341
303.15 K, x1 = 0.508 | – | 278

CCCCCC[n+]1ccn(C)c1.[Cl-] + OCCO
101 kPa
Details | viscosity [mPa·s]
293.15 K, x2 = 0.4977 | 172.9
293.15 K, x2 = 0.6002 | 83.9
303.15 K, x2 = 0 | 4206
313.15 K, x1 = 0.0188 | 10.05
313.15 K, x2 = 0.6987 | 21.31
313.15 K, x2 = 0.8897 | 11.47
313.15 K, x2 = 0.9642 | 10.19
313.15 K, x2 = 0.9761 | 10.09
323.15 K, x1 = 0.0061 | 7.09
323.15 K, x2 = 0 | 783
323.15 K, x2 = 0.6002 | 24.77
323.15 K, x2 = 0.6987 | 15.34
323.15 K, x2 = 0.8998 | 8.19
323.15 K, x2 = 0.9642 | 7.38
333.15 K, x1 = 0.0061 | 5.28
333.15 K, x2 = 0.1526 | 191.8
333.15 K, x2 = 0.4977 | 29.57
333.15 K, x2 = 0.6987 | 11.45
333.15 K, x2 = 0.9532 | 5.61
